From PMC8472512, “Synthesis and Biochemical Evaluation of Baicalein Prodrugs” (Pharmaceutics, 2021)
Converted amounts (≈) assume the structure as drawn.

How the values were obtained:
in vitro = details: PAMPA
Experimental: (§1) The assay was conducted as reported previously [15]. The samples were analyzed as described below in mouse plasma stability assay.

[1] = PAMPA (parallel artificial membrane permeability assay)
Experimental: as §1

[2] = Chemical stability in physiologically-relevant solutions; type: physicochemical; details: 37 °C; for remaining at 4 h, 10 μM: at 4 h vs time 0
Experimental: Stock solutions of the test compounds (baicalein, compounds 1–7) prepared in MeOH at 10 mM were diluted in 0.1 N HCl and 0.1 M potassium phosphate buffer (pH 6.5 and 7.4) in triplicate to a final concentration of 10 μM. The mixtures were then incubated at 37 °C in a shaking water bath. Samples taken at 0, 1, 2, 3 and 4 h were analyzed by Thermo UltiMate 3000 series HPLC system. Chromatographic separation was performed on an Agilent Eclipse Plus C18 column (100 × 4.6 mm, 3.5 µm) kept at 40 °C with isocratic elution at a flow rate of 0.6 mL/min using a mixture of 0.1 vol% TFA in deionized water and acetonitrile as the mobile phase. The detection wavelengths were 277 and 270 nm for baicalein and compounds 1–7, respectively. Peak areas of the analytes on the UV chromatograms were used to calculate % remaining values at each time points.
The stability of baicalein and of the synthesized carbamate prodrugs (1–7) was determined in solutions mimicking gastric (0.1 N HCl, pH ~ 1), intestinal (pH 6.5 phosphate buffer), and physiological (pH 7.4 phosphate buffer) conditions. […]. […] […]. The degradation of the carbamate prodrugs was accompanied by the formation of baicalein under all conditions in this study (data not shown). Although the exact reason for this pH-dependent stability remains unknown, it is plausible that the side chains of amino acids somehow affect the hydrolysis of the carbamate bond of the prodrugs.

Mouse pharmacokinetics = type: in vivo, male ICR mice; details: mice
Experimental: Pharmacokinetic studies were conducted with male ICR mice (8 weeks old; 30–35 g body wt.) purchased from Koatech Company (Pyeongtaek, Korea), as reported previously. Intravenous dosing solutions were prepared in EtOH/20% aqueous HPβCD (10/90 vol%) at 2 and 3 mg/mL for baicalein and compound 2, respectively. Oral dosing solutions were prepared in EtOH/tween 80/20% aqueous HPβCD (10/10/80 vol%) at 1 and 1.5 mg/mL for baicalein and compound 2, respectively. Plasma sample analysis was performed as described above in mouse plasma stability assay.

[3] = Kinetic solubility in phosphate buffer (pH 7.4); type: physicochemical; details: aqueous buffer, kinetic from dmso stock; shake-flask, 0.1 M phosphate buffer (pH 7.4), triplicate
Experimental: Stock solutions of the test compounds (baicalein and compounds 1–7) prepared at 10 mM in DMSO were diluted with 0.1 M potassium phosphate buffer (pH 7.4) in Mini-UniPrep filter vial (PTFE membrane, 0.45 μm) to a final concentration of 500 µM. The mixture was then shaken at 800 rpm for 90 min at rt and filtered by slowly pressing the upper tube of the Mini-Uniprep vial. The filtrate (300 µL) was then transferred to an HPLC vial containing same volume of acetonitrile. Sample analysis was conducted as described above in Chemical stability assay.

[4] = logD7.4 by shake-flask method; type: physicochemical; details: 0.1 M phosphate buffer (pH 7.4), duplicate
Experimental: The assay was conducted as reported previously. Briefly, 100 µM test solutions were prepared by diluting 10 mM stock solutions of the test compounds (baicalein and compounds 1–7) in 0.1 M potassium phosphate buffer (pH 7.4) saturated with 1-octanol. Standard solutions were prepared by diluting each test solution with the same volume of DMSO in HPLC vials. Partition solutions were prepared by mixing each test solution and 1-octanol saturated with 0.1 M potassium phosphate buffer (pH 7.4) at three different volume ratios, namely 1:0.02, 1:0.2 and 1:2, in HPLC vials. The partition solutions were then vortexed for 1 h at 1500 rpm at rt. The standard solutions and the aqueous phase (bottom layer) of each partition solution were analyzed directly from the HPLC vials as described above in Chemical stability assay. The logD7.4 values were calculated by the following equation: logD7.4=log(2×As/Ap−1)·Vt/Vo where As and Ap are, respectively, the peak areas of the standard and the aqueous phase of the partition solutions and Vt and Vo the volumes of test solution and 1-octanol of the partition solutions.

[5] = Metabolic stability in mouse liver S9 fractions; type: in vitro ADME; details: presence of the cofactor mixture (NADPH, UDPGA, PAPS, GSH), 37 °C, 60 min
Experimental: Working solutions of the test compounds (baicalein, 7-EC, and compounds 1–7) prepared in 50 vol% aqueous MeOH at 120 μM were added in triplicate to a 200 mM tris buffer (pH 7.4) containing mouse liver S9 fractions (1 mg protein/mL), alamethicin (25 μg/mL) and MgCl2 (2 mM). The final concentration of test compound was 3 μM. This mixture was pre-incubated at 37 °C in a shaking water bath for 5 min followed by addition of a cofactor mixture to following final concentrations: 1 mM NADPH, 0.5 mM UDPGA, 0.1 mM PAPS and 2.5 mM GSH. A 50 μL aliquot was taken at 0, 15, 30 and 60 min from each incubation mixture. These samples were then treated in the same way as described above in Mouse plasma stability assay. The supernatant was analyzed by Agilent 6530 Q−TOF LC−MS/MS system in a positive auto MS/MS scan mode. The liquid chromatography was conducted in the same condition as described above in mouse plasma stability assay. The analytical data were analyzed using Agilent MassHunter Quantitative Analysis Software (version B.05.00). MS chromatograms were extracted using calculated exact masses ([M+H]^+) for the analytes. Peak area ratios of the analytes vs. IS on the extracted MS chromatograms were used to calculate % remaining values at each time points.

[6] = pH 6.5 buffer (0.1 M potassium phosphate)
[7] = pH 7.4 buffer (0.1 M potassium phosphate)
[8] = male, ICR, mouse, in vivo, iv, plasma analyte after single i.v. dose of compound 2 15 mg/kg
[9] = male, ICR, mouse, in vivo, po, plasma analyte after single p.o. dose of compound 2 50 mg/kg
[10] = male, ICR, mouse, iv, plasma analyte after single i.v. dose of baicalein 10 mg/kg
[11] = male, ICR, mouse, iv, plasma analyte after single i.v. dose of compound 2 15 mg/kg
[12] = male, ICR, mouse, po, plasma analyte after single p.o. dose of baicalein 10 mg/kg
[13] = male, ICR, mouse, po, plasma analyte after single p.o. dose of compound 2 50 mg/kg

Compound | half-life at 10 μM ([2]; buffer, pH 1, 0.1 N HCl, 10 μM) [h] | remaining at 4 h, 10 μM ([2]; buffer, pH 1, 0.1 N HCl) [%] | half-life at 10 μM [2, 6] [h] | remaining at 4 h, 10 μM ([2]; pH 6.5 buffer) [%] | half-life at 10 μM [2, 7] [h] | remaining at 4 h, 10 μM ([2]; pH 7.4 buffer) [%] | solubility kinetic at 90 min [3] [µM] | logD [4] | also measured
CC(C)NCC(O)COc1cccc2ccccc12 (centres unmarked) [propranolol] | – | – | – | – | – | – | – | – | Papp (in vitro): > 1 ×10⁻⁶ cm/s
O=C(N[C@H](CO)[C@H](O)c1ccc([N+](=O)[O-])cc1)C(Cl)Cl [chloramphenicol] | – | – | – | – | – | – | – | – | Papp (in vitro): > 1 ×10⁻⁶ cm/s
CC(C)[C@H](NC(=O)Oc1cc2oc(-c3ccccc3)cc(=O)c2c(O)c1O)C(=O)O [Compound 2, (S)-2-((((5,6-Dihydroxy-4-oxo-2-phenyl-4H-chromen-7-yl)oxy)carbonyl)amino)-3-methylbutanoic acid] | > 4 | 105 ± 3.5 | > 4 | 92.8 ± 4.2 | > 4 | 74.4 ± 6.6 | 479.2 ± 4.4 (≈ 198 µg/mL) | 0.04 | Papp [1]: 0.04 ± 0.02 ×10⁻⁶ cm/s; AUC(0-inf) (Mouse pharmacokinetics; [8]): 88700 ± 43200 ng·h/mL; AUC(0-t) (Mouse pharmacokinetics; [8]): 88600 ± 43200 ng·h/mL; Cmax (Mouse pharmacokinetics; [8]): 65100 ± 4290 ng/mL; Tmax (Mouse pharmacokinetics; [8]): 0.1 h; half-life (Mouse pharmacokinetics; [8]): 1.9 ± 0.6 h; clearance (Mouse pharmacokinetics; male, ICR, mouse, in vivo, iv, single i.v. dose of compound 2 15 mg/kg): 3.33 mL/min/kg; Vd (Mouse pharmacokinetics; male, ICR, mouse, in vivo, iv, single i.v. dose of compound 2 15 mg/kg, read-out: VSS): 0.4 ± 0.1 L/kg; AUC(0-inf) (Mouse pharmacokinetics; [9]): 5820 ± 1710 ng·h/mL; AUC(0-t) (Mouse pharmacokinetics; [9]): 5430 ± 1730 ng·h/mL; Cmax (Mouse pharmacokinetics; [9]): 2930 ± 590 ng/mL; Tmax (Mouse pharmacokinetics; [9]): 0.3 ± 0.09 h; half-life (Mouse pharmacokinetics; [9]): 1.7 ± 0.5 h; bioavailability (Mouse pharmacokinetics; male, ICR, mouse, in vivo, oral bioavailability of compound 2, p.o. 50 mg/kg vs i.v. 15 mg/kg): 2 ± 0.6%
COCCc1ccc(OCC(O)CNC(C)C)cc1 (centres unmarked) [metoprolol] | – | – | – | – | – | – | – | – | Papp (in vitro): > 1 ×10⁻⁶ cm/s
CC(C)C[C@H](NC(=O)Oc1cc2oc(-c3ccccc3)cc(=O)c2c(O)c1O)C(=O)O [Compound 1, (S)-2-((((5,6-Dihydroxy-4-oxo-2-phenyl-4H-chromen-7-yl)oxy)carbonyl)amino)-4-methylpentanoic acid] | 1.4 ± 0.3 | 17.4 ± 2.1 | > 4 | 92.9 ± 5 | > 4 | 98 ± 3.6 | 443 ± 65.9 (≈ 189 µg/mL) | 0.39 | –
O=C(N[C@@H](Cc1ccccc1)C(=O)O)Oc1cc2oc(-c3ccccc3)cc(=O)c2c(O)c1O [Compound 5, (S)-2-((((5,6-Dihydroxy-4-oxo-2-phenyl-4H-chromen-7-yl)oxy)carbonyl)amino)-3-phenylpropanoic acid] | 2.2 ± 0.4 | 27.4 ± 5.1 | > 4 | 78.5 ± 1.5 | > 4 | 70.2 ± 2.5 | 375 ± 21.4 (≈ 173 µg/mL) | 0.43 | metabolism in mouse liver S9 fractions [5]: metabolized much faster than the other prodrugs
O=C(O)CNC(=O)Oc1cc2oc(-c3ccccc3)cc(=O)c2c(O)c1O [Compound 7, 2-((((5,6-Dihydroxy-4-oxo-2-phenyl-4H-chromen-7-yl)oxy)carbonyl)amino)acetic acid] | 1.5 ± 0.3 | 23.3 ± 3.6 | > 4 | 82.2 ± 1 | > 4 | 76.7 ± 0.3 | 357.1 ± 1.4 (≈ 133 µg/mL) | -0.39 | –
NS(=O)(=O)c1cc2c(cc1Cl)NCNS2(=O)=O [hydrochlorothiazide] | – | – | – | – | – | – | – | – | Papp (in vitro): < 0.1 ×10⁻⁶ cm/s
O=C(O)[C@H]1O[C@@H](Oc2cc3oc(-c4ccccc4)cc(=O)c3c(O)c2O)[C@H](O)[C@@H](O)[C@@H]1O [Baicalin] | – | – | – | – | – | – | – | – | time plasma analyte was above the quantitation limit (Mouse pharmacokinetics; after single i.v. dose of 10 mg/kg baicalein): 24 h; time plasma analyte was above the quantitation limit (Mouse pharmacokinetics; after single p.o. dose of 10 mg/kg baicalein, 24 h time course): 24 h; AUC(0-inf) (Mouse pharmacokinetics; [10]): 2600 ± 510 ng·h/mL; AUC(0-t) (Mouse pharmacokinetics; [10]): 2450 ± 490 ng·h/mL; Cmax (Mouse pharmacokinetics; [10]): 4590 ± 870 ng/mL; Tmax (Mouse pharmacokinetics; [10]): 0.1 h; half-life (Mouse pharmacokinetics; [10]): 6.2 ± 2.8 h; AUC(0-inf) (Mouse pharmacokinetics; [11]): 500 ± 170 ng·h/mL; AUC(0-t) (Mouse pharmacokinetics; [11]): 200 ± 88 ng·h/mL; Cmax (Mouse pharmacokinetics; [11]): 90 ± 10 ng/mL; Tmax (Mouse pharmacokinetics; [11]): 0.1 h; half-life (Mouse pharmacokinetics; [11]): 6.6 ± 1.6 h; AUC(0-inf) (Mouse pharmacokinetics; [12]): 4890 ± 1400 ng·h/mL; AUC(0-t) (Mouse pharmacokinetics; [12]): 4420 ± 1440 ng·h/mL; Cmax (Mouse pharmacokinetics; [12]): 2260 ± 670 ng/mL; Tmax (Mouse pharmacokinetics; [12]): 0.2 h; half-life (Mouse pharmacokinetics; [12]): 6.3 ± 3 h; AUC(0-t) (Mouse pharmacokinetics; [13]): 680 ± 210 ng·h/mL; Cmax (Mouse pharmacokinetics; [13]): 130 ± 40 ng/mL; Tmax (Mouse pharmacokinetics; [13]): 6 ± 2.8 h
CC[C@@H](C)[C@H](NC(=O)Oc1cc2oc(-c3ccccc3)cc(=O)c2c(O)c1O)C(=O)O [Compound 3, (2S,3R)-2-((((5,6-Dihydroxy-4-oxo-2-phenyl-4H-chromen-7-yl)oxy)carbonyl)amino)-3-methylpentanoic acid] | > 4 | 98.9 ± 5 | > 4 | 90.2 ± 1.1 | > 4 | 80.1 ± 2.5 | 447 ± 36.9 (≈ 191 µg/mL) | 0.25 | –
CC(C)(C)NCC(O)COc1cccc2c1CC(O)C(O)C2 (centres unmarked) [nadolol, reference compound] | – | – | – | – | – | – | – | – | Papp [1]: < 0.1 ×10⁻⁶ cm/s
CCOc1ccc2ccc(=O)oc2c1 [7-Ethoxycoumarin] | – | – | – | – | – | – | – | – | metabolism in mouse liver S9 fractions [5]: rapid metabolism
C[C@H](NC(=O)Oc1cc2oc(-c3ccccc3)cc(=O)c2c(O)c1O)C(=O)O [Compound 6, (S)-2-((((5,6-Dihydroxy-4-oxo-2-phenyl-4H-chromen-7-yl)oxy)carbonyl)amino)propanoic acid] | > 4 | 90.2 ± 4.1 | > 4 | 81.8 ± 1.3 | > 4 | 76.6 ± 1.7 | 400 ± 14.7 (≈ 154 µg/mL) | -0.18 | Papp [1]: < 0.01 ×10⁻⁶ cm/s
C[C@@H](O)[C@H](NC(=O)Oc1cc2oc(-c3ccccc3)cc(=O)c2c(O)c1O)C(=O)O [Compound 4, (2S,3R)-2-((((5,6-Dihydroxy-4-oxo-2-phenyl-4H-chromen-7-yl)oxy)carbonyl)amino)-3-hydroxybutanoic acid] | > 4 | 109 ± 3.4 | 2.8 ± 0.1 | 37.3 ± 0.2 | 1.7 ± 0.1 | 20 ± 1 | 347 ± 11.4 (≈ 144 µg/mL) | -0.05 | –
